Reference: ChEMBL document CHEMBL4616581, “Current scenario of artemisinin and its analogues for antimalarial activity” (Eur J Med Chem, 2019)
Values after ≈ are worked out from the molar mass of the structure shown.

Tests used:
Assay type in all cases: functional, organism-based
[1] = test system: Plasmodium falciparum; assay: Antimalarial activity against Plasmodium falciparum D6
[2] = test system: Plasmodium falciparum; assay: Antimalarial activity against Plasmodium falciparum W2
[3] = test system: Plasmodium falciparum; assay: Antimalarial activity against Plasmodium falciparum NF54 after 48 hrs by spectrophotometric analysis; conditions: NF54, 48 h
[4] = test system: Plasmodium falciparum; assay: Antimalarial activity against Plasmodium falciparum K1
[5] = test system: Plasmodium falciparum; assay: Antimalarial activity against Plasmodium falciparum HB3
[6] = test system: Plasmodium falciparum; assay: Antimalarial activity against Plasmodium falciparum W2 after 24 hrs by in presence of [3H]hypoxanthine
[7] = test system: Plasmodium falciparum; assay: Antimalarial activity against Plasmodium falciparum D6 after 24 hrs by in presence of [3H]hypoxanthine
[8] = test system: Plasmodium falciparum; assay: Antimalarial activity against Plasmodium falciparum K1 by [3H]-hypoxanthine incorporation assay
[9] = test system: Plasmodium falciparum; assay: Antimalarial activity against blood stages of chloroquine-resistant Plasmodium falciparum K1

C[C@@H]1CC[C@H]2[C@](C)(Br)[C@@H](Nc3ccccc3)O[C@@H]3O[C@]4(C)CC[C@@H]1[C@]32OO4
IC50 [1]: 3.42 ng/mL (≈ 7.8 nM)
IC50 [2]: 0.63 ng/mL

COc1ccc(OC)c(COC2O[C@@H]3O[C@]4(C)CC[C@H]5[C@H](C)CC[C@H]([C@@]35OO4)[C@@]2(C)O)c1 (stereo partly specified)
IC50 [3]: 125 nM

CC[C@H]1O[C@@H]2O[C@]3(C)CC[C@H]4[C@H](C)CC[C@@H]([C@H]1C)[C@@]24OO3
IC50 [1]: 1.09 ng/mL (≈ 3.68 nM)
IC50 [2]: 0.29 ng/mL

C[C@H]1[C@@H](C(F)(F)F)O[C@@H]2O[C@]3(C)CC[C@H]4[C@H](C)CC[C@@H]1[C@@]24OO3
IC50 [2]: 6.2 nM

C[C@H]1[C@@H](OCc2ccc(CN)cc2)O[C@@H]2O[C@]3(C)CC[C@H]4[C@H](C)CC[C@@H]1[C@@]24OO3
IC50 [4]: 1.4 nM
IC50 [5]: 3.1 nM

C[C@H]1[C@@H](OCc2ccc(CN3CCOCC3)cc2)O[C@@H]2O[C@]3(C)CC[C@H]4[C@H](C)CC[C@@H]1[C@@]24OO3
IC50 [4]: 35 nM
IC50 [5]: 50 nM

COC(=O)[C@@H](C)CO[C@H]1O[C@@H]2O[C@]3(C)CC[C@H]4[C@H](C)CC[C@@H]([C@H]1C)[C@@]24OO3
IC50 [6]: 0.015 ng/mL
IC50 [7]: 0.36 ng/mL

CCC[C@H]1O[C@@H]2O[C@]3(C)CC[C@H]4[C@H](C)CC[C@@H]([C@H]1C)[C@@]24OO3
IC50 [1]: 0.41 ng/mL (≈ 1.32 nM)
IC50 [2]: 0.16 ng/mL

C[C@H]1[C@@H](O[C@@H]2O[C@H](CO)[C@@H](O[C@@H]3O[C@H](CO)[C@@H](O)[C@H](O)[C@H]3O)[C@H](O)[C@H]2O)O[C@@H]2O[C@]3(C)CC[C@H]4[C@H](C)CC[C@@H]1[C@@]24OO3
IC50 [6]: 171 ng/mL
IC50 [7]: 710 ng/mL

C[C@@H]1CC[C@H]2[C@H](C[C@@]3(CCCCCC[C@]4(C[C@H]5C(=O)O[C@@H]6O[C@]7(C)CC[C@H]8[C@H](C)CC[C@@H]5[C@@]68OO7)C(=O)O[C@@H]5O[C@]6(C)CC[C@H]7[C@H](C)CC[C@@H]4[C@@]57OO6)C(=O)O[C@@H]4O[C@]5(C)CC[C@H]6[C@H](C)CC[C@@H]3[C@@]46OO5)C(=O)O[C@@H]3O[C@]4(C)CC[C@@H]1[C@]32OO4
EC50 [8]: 5.8 nM

C[C@@H]1CC[C@H]2[C@@H](C)C(CCCO)O[C@@H]3O[C@]4(C)CC[C@@H]1[C@]32OO4 (stereo partly specified)
IC50 [1]: 0.23 ng/mL (≈ 0.705 nM)
IC50 [2]: 0.23 ng/mL

COC(=O)[C@H](C)CO[C@H]1O[C@@H]2O[C@]3(C)CC[C@H]4[C@H](C)CC[C@@H]([C@H]1C)[C@@]24OO3
IC50 [6]: 0.057 ng/mL
IC50 [7]: 2.15 ng/mL

C[C@@H]1CC[C@H]2[C@@H](C)C(OC(=O)c3cccc([N+](=O)[O-])c3)O[C@@H]3O[C@]4(C)CC[C@@H]1[C@]32OO4 (stereo partly specified)
IC50 [3]: 10.6 nM

C[C@H]1[C@@H](OC2O[C@H](CO)[C@H](O)[C@H](O)[C@H]2O)O[C@@H]2O[C@]3(C)CC[C@H]4[C@H](C)CC[C@@H]1[C@@]24OO3 (stereo partly specified)
IC50 [6]: 35.6 ng/mL
IC50 [7]: 13.1 ng/mL

C[C@H]1[C@@H](OC[C@@H](C)C(=O)O)O[C@@H]2O[C@]3(C)CC[C@H]4[C@H](C)CC[C@@H]1[C@@]24OO3
IC50 [6]: 5.34 ng/mL
IC50 [7]: 22.2 ng/mL

C[C@@H]1CC[C@H]2[C@](C)(Br)[C@@H](Nc3cccc(F)c3)O[C@@H]3O[C@]4(C)CC[C@@H]1[C@]32OO4
IC50 [1]: 0.16 ng/mL (≈ 0.351 nM)
IC50 [2]: < 0.16 ng/mL

CCO[C@H]1O[C@@H]2C[C@]3(C)CC[C@H]4[C@H](C)CC[C@@H]([C@H]1C)[C@@]24OO3
IC50 [9]: 12.8 nM

CO[C@H]1O[C@@H]2C[C@]3(C)CC[C@H]4[C@H](C)CC[C@@H]([C@H]1C)[C@@]24OO3
IC50 [9]: 0.301 ng/mL

C[C@H]1[C@@H](OCCN2CCCC2)O[C@@H]2O[C@]3(C)CC[C@H]4[C@H](C)CC[C@@H]1[C@@]24OO3
IC50 [4]: 23 nM
IC50 [5]: 23 nM

C[C@@H]1CC[C@H]2[C@](C)(Br)[C@@H](Nc3nccs3)O[C@@H]3O[C@]4(C)CC[C@@H]1[C@]32OO4
IC50 [1]: 0.91 ng/mL (≈ 2.04 nM)
IC50 [2]: 0.21 ng/mL

C[C@@H]1CC[C@@H]2[C@]34OO[C@@](C)(CC[C@@H]13)O[C@H]4OC(O/C=C/c1ccccc1)[C@]2(C)O (stereo partly specified)
IC50 [3]: 106 nM

CNCCO[C@H]1O[C@@H]2O[C@]3(C)CC[C@H]4[C@H](C)CC[C@@H]([C@H]1C)[C@@]24OO3
IC50 [4]: 24 nM
IC50 [5]: 27 nM

COC(=O)CCC(OC1O[C@@H]2O[C@]3(C)CC[C@H]4[C@H](C)CC[C@@H]([C@H]1C)[C@@]24OO3)c1ccc(Cl)cc1 (stereo partly specified)
IC50 [1]: 0.391 ng/mL (≈ 0.79 nM)
IC50 [2]: 0.656 ng/mL

C[C@H]1[C@@H](OC[C@H](C)C(=O)O)O[C@@H]2O[C@]3(C)CC[C@H]4[C@H](C)CC[C@@H]1[C@@]24OO3
IC50 [6]: 8.33 ng/mL
IC50 [7]: 28.7 ng/mL
